Reference: EP0351418B1, “VIRAL VECTOR SYSTEM FOR THE INTRODUCTION OF FOREIGN DNA […] INTO GA[…]” (SYNERGEN, INC., priority 1987, dated 1988)

Tested on: HVT
Assay: Growth and plaque formation of HVT in CEF in the presence of AraT
Format: cell-based, herpesvirus of turkeys (HVT)
Text: In HSV-infected cells, ¹²⁵IdC is incorporated into DNA only after it has been phosphorylated by the viral TK as described by Summers and Summers, J. Virol. 24: 314-318 (1977), specifically incorporated herein by reference. Moreover, growth of HVT in CEF is inhibited by the drug AraT, whereas uninfected CEF appears to be unaffected. AraT (1-beta-D-arabinofuranosyl-thymine obtained from Calbiochem) is lethal to cells only once it is incorporated into the DNA where it acts as a chain-terminator. Again by analogy to HSV, AraT-resistance is likely to be due to mutations in the thymidine kinase gene.
AraT-resistant variants occur spontaneously in populations of FC126, and are isolated by growing cell-free virus as described by Calnek et al., Avian Dis. 16:52-56 (1972), specifically incorporated herein by reference, in CEF in the presence of 100 ug/ml AraT. Specifically, 150 mm tissue culture dishes are seeded with 2 X 10⁷ cells of secondary CEF. Two hours later the medium is removed, and 2 X 10⁴ pfu of cell-free HVT are adsorbed for 30 minutes. After adsorption, 30 ml of medium containing 100 ug/ml of AraT is added. Cells are fluid-changed every two days, always with AraT, and monolayers are screened for plaques 4-5 days post-infection at 40-fold magnfication using an inverted microscope. One AraT-resistant variant ATR° was found in 2 X 10⁵ pfu screened initially. Subsequent experiments have yielded AraT resistant HVT at least that frequency. ATR° remains stable for at least nine passages in the absence of AraT.
In addition, wild-type HVT has a growth advantage over the AraT-resistant variants. These differences between the wild-type HVT and HVT that are AraT-resistant, form the basis for a marker-rescue assay that allows for the identification of the region of DNA, and thus the gene which confers resistance to AraT. DNA from the AraT resistant HVT (10 ug of total infected-cell DNA) is co-transfected with individual DNA clones (200 ng of plasmid DNA or 1 ug of phage DNA) representing the genome of HVT. […]

Cc1cn([C@@H]2O[C@H](CO)[C@@H](O)[C@@H]2O)c(=O)[nH]c1=O [AraT, 1-beta-D-arabinofuranosyl-thymine]
effect on uninfected CEF (AraT, uninfected CEF): unaffected | growth of HVT in CEF (in the presence of AraT): inhibited | plaque-forming ability of wild-type HVT (in the presence of AraT): completely inhibits
